Assay results reported in patent US20140357512A1, “HISTONE DEACETYLASE (HDAC) BIOMARKERS IN MULTIPLE MYELOMA” (priority 2013, published 2014).

Test system: human myeloma cell line MM.1S
Assay: Biological pathway analysis of SILAC biomarker peptides against pathway database (broadinstitute gsea)
Protocol: Once biomarker peptides are identified for a specific drug by the SILAC method, the biomarker peptides may be compared to peptides/proteins in a biological pathway database in order to identify major biological pathways or functions implicated by the drug's action. A preferred pathway analysis website is at www dot broadinstitute dot org/gsea/index dot jsp.
This example describes the biological pathway analysis that was performed on each of Compound A, Compound B, and Tubastatin A.
Once biomarker peptides were identified for a specific drug (either Compound A, Compound B, or Tubastatin A) by the SILAC method in Example 1, the biomarker peptides were compared to peptides/proteins in the biological pathway database at www dot broadinstitute dot org/gsea/index dot jsp in order to identify major biological pathways or functions implicated by the drug's action.

## O=C(NO)c1cnc(NC2(c3cccc(F)c3)CCCCC2)nc1 [Compound B, 2-((1-(3-fluorophenyl)cyclohexyl)amino)-N-hydroxypyrimidine-5-carboxamide]
Pathway_size 48
  Observed: number of genes in pathway REACTOME_PACKAGING_OF_TELOMERE_ENDS: 15
  Ratio observed/pathway size, REACTOME_PACKAGING_OF_TELOMERE_ENDS: 0.3125
Pathway_size 61
  Observed: number of genes in pathway REACTOME_RNA_POL_I_PROMOTER_OPENING: 15
  Ratio observed/pathway size, REACTOME_RNA_POL_I_PROMOTER_OPENING: 0.2459
Pathway_size 64
  Observed: number of genes in pathway REACTOME_DEPOSITION_OF_NEW_CENPA_CONTAINING_NUCLEOSOMES_AT_THE_CENTROMERE: 15
  Ratio observed/pathway size, REACTOME_DEPOSITION_OF_NEW_CENPA_CONTAINING_NUCLEOSOMES_AT_THE_CENTROMERE: 0.2344
Pathway_size 71
  Observed: number of genes in pathway REACTOME_MEIOTIC_SYNAPSIS: 16
  Ratio observed/pathway size, REACTOME_MEIOTIC_SYNAPSIS: 0.2254
Pathway_size 127
  Observed: number of genes in pathway MORF_PPP2CA: 18
  Ratio observed/pathway size, MORF_PPP2CA: 0.1417
Pathway_size 154
  Observed: number of genes in pathway MORF_NME2: 19
  Ratio observed/pathway size, MORF_NME2: 0.1234
Pathway_size 162
  Observed: number of genes in pathway MORF_NPM1: 20
  Ratio observed/pathway size, MORF_NPM1: 0.1235
Pathway_size 168
  Observed: number of genes in pathway MORF_CTBP1: 24
  Ratio observed/pathway size, MORF_CTBP1: 0.1429
Pathway_size 171
  Observed: number of genes in pathway MORF_G22P1: 23
  Ratio observed/pathway size, MORF_G22P1: 0.1345
Pathway_size 182
  Observed: number of genes in pathway MORF_RAD21: 20
  Ratio observed/pathway size, MORF_RAD21: 0.1099
Pathway_size 187
  Observed: number of genes in pathway PENG_LEUCINE_DEPRIVATION_DN: 21
  Ratio observed/pathway size, PENG_LEUCINE_DEPRIVATION_DN: 0.1123
Pathway_size 193
  Observed: number of genes in pathway MORF_DAP3: 21
  Ratio observed/pathway size, MORF_DAP3: 0.1088
Pathway_size 197
  Observed: number of genes in pathway MORF_ANP32B: 27
  Ratio observed/pathway size, MORF_ANP32B: 0.1371
Pathway_size 202
  Observed: number of genes in pathway MORF_SKP1A: 22
  Ratio observed/pathway size, MORF_SKP1A: 0.1089
Pathway_size 205
  Observed: number of genes in pathway MORF_AATF: 22
  Ratio observed/pathway size, MORF_AATF: 0.1073
Pathway_size 210
  Observed: number of genes in pathway MORF_ACP1: 22
  Ratio observed/pathway size, MORF_ACP1: 0.1048
Pathway_size 234
  Observed: number of genes in pathway MORF_XRCC5: 26
  Ratio observed/pathway size, MORF_XRCC5: 0.1111
Pathway_size 238
  Observed: number of genes in pathway MORF_UBE2I: 31
  Ratio observed/pathway size, MORF_UBE2I: 0.1303
Pathway_size 244
  Observed: number of genes in pathway MORF_EIF3S2: 25
  Ratio observed/pathway size, MORF_EIF3S2: 0.1025
Pathway_size 254
  Observed: number of genes in pathway MORF_HDAC1: 30
  Ratio observed/pathway size, MORF_HDAC1: 0.1181
Pathway_size 262
  Observed: number of genes in pathway MORF_DEK: 29
  Ratio observed/pathway size, MORF_DEK: 0.1107
Pathway_size 268
  Observed: number of genes in pathway MORF_RAN: 33
  Ratio observed/pathway size, MORF_RAN: 0.1231
Pathway_size 276
  Observed: number of genes in pathway MORF_BUB3: 27
  Ratio observed/pathway size, MORF_BUB3: 0.09783
Pathway_size 277
  Observed: number of genes in pathway MORF_SOD1: 23
  Ratio observed/pathway size, MORF_SOD1: 0.08303
Pathway_size 287
  Observed: number of genes in pathway MORF_CSNK2B: 27
  Ratio observed/pathway size, MORF_CSNK2B: 0.09408
Pathway_size 303
  Observed: number of genes in pathway MORF_GNB1: 30
  Ratio observed/pathway size, MORF_GNB1: 0.09901
Pathway_size 337
  Observed: number of genes in pathway PENG_GLUTAMINE_DEPRIVATION_DN: 25
  Ratio observed/pathway size, PENG_GLUTAMINE_DEPRIVATION_DN: 0.07418
Pathway_size 345
  Observed: number of genes in pathway MORF_RAD23A: 34
  Ratio observed/pathway size, MORF_RAD23A: 0.09855
Pathway_size 389
  Observed: number of genes in pathway HSIAO_HOUSEKEEPING_GENES: 36
  Ratio observed/pathway size, HSIAO_HOUSEKEEPING_GENES: 0.09255
Pathway_size 412
  Observed: number of genes in pathway REACTOME_CELL_CYCLE: 29
  Ratio observed/pathway size, REACTOME_CELL_CYCLE: 0.07039
Pathway_size 662
  Observed: number of genes in pathway CASORELLI_ACUTE_PROMYELOCYTIC_LEUKEMIA_DN: 31
  Ratio observed/pathway size, CASORELLI_ACUTE_PROMYELOCYTIC_LEUKEMIA_DN: 0.04683
Pathway_size 681
  Observed: number of genes in pathway KIM_BIPOLAR_DISORDER_OLIGODENDROCYTE_DENSITY_CORR_UP: 31
  Ratio observed/pathway size, KIM_BIPOLAR_DISORDER_OLIGODENDROCYTE_DENSITY_CORR_UP: 0.04552
Pathway_size 775
  Observed: number of genes in pathway BENPORATH_MYC_MAX_TARGETS: 35
  Ratio observed/pathway size, BENPORATH_MYC_MAX_TARGETS: 0.04516
Pathway_size 778
  Observed: number of genes in pathway PUJANA_CHEK2_PCC_NETWORK: 39
  Ratio observed/pathway size, PUJANA_CHEK2_PCC_NETWORK: 0.05013
Pathway_size 870
  Observed: number of genes in pathway GRADE_COLON_CANCER_UP: 40
  Ratio observed/pathway size, GRADE_COLON_CANCER_UP: 0.04598
Pathway_size 945
  Observed: number of genes in pathway MACROMOLECULAR_COMPLEX: 34
  Ratio observed/pathway size, MACROMOLECULAR_COMPLEX: 0.03598
Pathway_size 957
  Observed: number of genes in pathway LOPEZ_MBD_TARGETS: 37
  Ratio observed/pathway size, LOPEZ_MBD_TARGETS: 0.03866
Pathway_size 1102
  Observed: number of genes in pathway DANG_BOUND_BY_MYC: 46
  Ratio observed/pathway size, DANG_BOUND_BY_MYC: 0.04174
Pathway_size 1192
  Observed: number of genes in pathway INTRACELLULAR_ORGANELLE_PART: 47
  Ratio observed/pathway size, INTRACELLULAR_ORGANELLE_PART: 0.03943
Pathway_size 1197
  Observed: number of genes in pathway ORGANELLE_PART: 47
  Ratio observed/pathway size, ORGANELLE_PART: 0.03927
Pathway_size 1237
  Observed: number of genes in pathway BLALOCK_ALZHEIMERS_DISEASE_DN: 49
  Ratio observed/pathway size, BLALOCK_ALZHEIMERS_DISEASE_DN: 0.03961
Pathway_size 1368
  Observed: number of genes in pathway DODD_NASOPHARYNGEAL_CARCINOMA_DN: 39
  Ratio observed/pathway size, DODD_NASOPHARYNGEAL_CARCINOMA_DN: 0.02851
Pathway_size 1382
  Observed: number of genes in pathway DIAZ_CHRONIC_MEYLOGENOUS_LEUKEMIA_UP: 58
  Ratio observed/pathway size, DIAZ_CHRONIC_MEYLOGENOUS_LEUKEMIA_UP: 0.04197
Pathway_size 1428
  Observed: number of genes in pathway NUCLEUS: 40
  Ratio observed/pathway size, NUCLEUS: 0.02801
Pathway_size 1440
  Observed: number of genes in pathway PUJANA_ATM_PCC_NETWORK: 41
  Ratio observed/pathway size, PUJANA_ATM_PCC_NETWORK: 0.02847
Pathway_size 1651
  Observed: number of genes in pathway PUJANA_BRCA1_PCC_NETWORK: 68
  Ratio observed/pathway size, PUJANA_BRCA1_PCC_NETWORK: 0.04119
Pathway_size 1781
  Observed: number of genes in pathway GRAESSMANN_APOPTOSIS_BY_DOXORUBICIN_DN: 44
  Ratio observed/pathway size, […]_APOPTOSIS_BY_DOXORUBICIN_DN: 0.02471
Pathway_size 1972
  Observed: number of genes in pathway PILON_KLF1_TARGETS_DN: 45
  Ratio observed/pathway size, PILON_KLF1_TARGETS_DN: 0.02282
Pathway_size 2130
  Observed: number of genes in pathway CYTOPLASM: 50
  Ratio observed/pathway size, CYTOPLASM: 0.02347
Pathway_size 2939
  Observed: number of genes in pathway GGGCGGR_V$SP1_Q6: 53
  Ratio observed/pathway size, GGGCGGR_V$SP1_Q6: 0.01803
